Data: US12077503B2, “Substituted cyclic amides and their use as herbicides” (FMC CORPORATION, priority 2015, dated 2024)

Key:
Assay type in all cases: in vivo
[1] = system: barnyardgrass (Echinochloa crus-galli); test: Test G Post-Emergence Protocol; details: Echinochloa crus-galli, post-emergence, 312 h
In short: (§1)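 Values are percent visual injury at 13 days after treatment (0 none, 100 total). Treatment was a post-emergence spray at 15.625, 62.5 or 250 g/ha on 8-day-old pot plants kept at 24/16 °C.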

[2] = system: velvetleaf (Abutilon theophrasti); test: Test G Post-Emergence Protocol; details: Abutilon theophrasti, post-emergence, 312 h
In short: as §1

[3] = system: redroot pigweed (Amaranthus retroflexus); test: Test G Post-Emergence Protocol; details: Amaranthus retroflexus, post-emergence, 312 h
In short: as §1

[4] = system: giant foxtail (Setaria faberi); test: Test G Post-Emergence Protocol; details: Setaria faberi, post-emergence, 312 h
In short: as §1

[5] = system: ivy-leaved morning glory (Ipomoea hederacea); test: Test G Post-Emergence Protocol; details: Ipomoea, post-emergence, 312 h
In short: as §1

corn (Zea mays) [6] = test: Test G Post-Emergence Protocol; details: Zea mays, post-emergence, 312 h
In short: as §1

[7] = system: barnyardgrass (Echinochloa crus-galli); test: Test G Pre-Emergence Protocol; details: Echinochloa crus-galli, pre-emergence, 312 h, evaluated after 13 days
In short: (§2)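 Glasshouse pre-emergence test: soil-sown seeds, sprayed after 1 d at 15.625, 62.5 or 250 g/ha. Conditions 24/16° C day/night, 14 h light, 65% humidity, watering twice daily. Rating 13 d post-spray (100 = total damage).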

[8] = system: velvetleaf (Abutilon theophrasti); test: Test G Pre-Emergence Protocol; details: Abutilon theophrasti, pre-emergence, 312 h, evaluated after 13 days
In short: as §2

[9] = system: redroot pigweed (Amaranthus retroflexus); test: Test G Pre-Emergence Protocol; details: Amaranthus retroflexus, pre-emergence, 312 h, evaluated after 13 days
In short: as §2

[10] = system: giant foxtail (Setaria faberi); test: Test G Pre-Emergence Protocol; details: Setaria faberi, pre-emergence, 312 h, evaluated after 13 days
In short: as §2

[11] = system: ivy-leaved morning glory (Ipomoea hederacea); test: Test G Pre-Emergence Protocol; details: Ipomoea, pre-emergence, 312 h, evaluated after 13 days
In short: as §2

corn (Zea mays) [12] = test: Test G Pre-Emergence Protocol; details: Zea mays, pre-emergence, 312 h, evaluated after 13 days
In short: as §2

CN1C[C@H](c2ccc(F)c(OCC(F)(F)F)c2)[C@@H](C(=O)Nc2ccccc2F)C1=O (racemic) [Compound 1456]
10%: pest or weed control at 15.625 g/ha ([1]; 15.625 g ai/ha, evaluated after 13 days (100=total damage to plant; 0=no damage to plant), read-out: Barnyardgrass damage rating) | pest or weed control at 62.5 g/ha ([1]; 62.5 g ai/ha, evaluated after 13 days, read-out: Barnyardgrass damage rating (100=total damage to plant; 0=no damage to plant)) | plant injury at 15.625 g/ha (corn (Zea mays) [6]; 15.625 g ai/ha, evaluated after 13 days (100=total damage to plant; 0=no damage to plant), read-out: Corn damage rating)
40%: pest or weed control at 250 g/ha ([3]; 250 g ai/ha, evaluated after 13 days, read-out: damage to plant, Pigweed, Redroot (100=total damage to plant; 0=no damage to plant)) | pest or weed control at 250 g/ha ([8]; 250 g ai/ha, read-out: Velvetleaf damage rating (100=total damage to plant; 0=no damage to plant)) | pest or weed control at 250 g/ha ([11]; 250 g ai/ha, read-out: Morningglory, Ivy-leaved damage rating (100=total damage to plant; 0=no damage to plant)) | plant injury at 250 g/ha (corn (Zea mays) [12]; 250 g ai/ha, read-out: Corn damage rating (100=total damage to plant; 0=no damage to plant))
50%: pest or weed control at 15.625 g/ha ([4]; 15.625 g ai/ha, evaluated after 13 days (100=total damage to plant; 0=no damage to plant), read-out: Foxtail, Giant damage rating)
80%: pest or weed control at 250 g/ha ([7]; 250 g ai/ha, read-out: Barnyardgrass damage rating (100=total damage to plant; 0=no damage to plant)) | pest or weed control at 62.5 g/ha ([10]; 62.5 g ai/ha, 100=total damage to plant, 0=no damage to plant, read-out: plant damage rating, Foxtail, Giant)
60%: pest or weed control at 62.5 g/ha ([4]; 62.5 g ai/ha, evaluated after 13 days, read-out: Foxtail, Giant damage rating (100=total damage to plant; 0=no damage to plant)) | plant injury at 250 g/ha (corn (Zea mays) [6]; 250 g ai/ha, evaluated after 13 days, read-out: damage to plant, Corn (100=total damage to plant; 0=no damage to plant)) | pest or weed control at 62.5 g/ha ([7]; 62.5 g ai/ha, 100=total damage to plant, 0=no damage to plant, read-out: plant damage rating, Barnyardgrass) | pest or weed control at 15.625 g/ha ([10]; 15.625 g ai/ha, read-out: Foxtail, Giant damage rating (100=total damage to plant; 0=no damage to plant))
70%: pest or weed control at 250 g/ha ([4]; 250 g ai/ha, evaluated after 13 days, read-out: damage to plant, Foxtail, Giant (100=total damage to plant; 0=no damage to plant))
20%: pest or weed control at 250 g/ha ([1]; 250 g ai/ha, evaluated after 13 days, read-out: damage to plant, Barnyardgrass (100=total damage to plant; 0=no damage to plant)) | pest or weed control at 62.5 g/ha ([2]; 62.5 g ai/ha, evaluated after 13 days, read-out: Velvetleaf damage rating (100=total damage to plant; 0=no damage to plant)) | pest or weed control at 250 g/ha ([2]; 250 g ai/ha, evaluated after 13 days, read-out: damage to plant, Velvetleaf (100=total damage to plant; 0=no damage to plant)) | pest or weed control at 250 g/ha ([5]; 250 g ai/ha, evaluated after 13 days, read-out: damage to plant, Morningglory, Ivy-leaved (100=total damage to plant; 0=no damage to plant)) | plant injury at 62.5 g/ha (corn (Zea mays) [6]; 62.5 g ai/ha, evaluated after 13 days, read-out: Corn damage rating (100=total damage to plant; 0=no damage to plant)) | pest or weed control at 15.625 g/ha ([7]; 15.625 g ai/ha, read-out: Barnyard grass damage rating (100=total damage to plant; 0=no damage to plant))
0%: pest or weed control at 15.625 g/ha ([2]; 15.625 g ai/ha, evaluated after 13 days (100=total damage to plant; 0=no damage to plant), read-out: Velvetleaf damage rating) | pest or weed control at 15.625 g/ha ([3]; 15.625 g ai/ha, evaluated after 13 days (100=total damage to plant; 0=no damage to plant), read-out: Pigweed, Redroot damage rating) | pest or weed control at 15.625 g/ha ([8]; 15.625 g ai/ha, read-out: Velvetleaf damage rating (100=total damage to plant; 0=no damage to plant)) | pest or weed control at 62.5 g/ha ([8]; 62.5 g ai/ha, 100=total damage to plant, 0=no damage to plant, read-out: plant damage rating, Velvetleaf) | pest or weed control at 15.625 g/ha ([9]; 15.625 g ai/ha, read-out: Pigweed, Redroot damage rating (100=total damage to plant; 0=no damage to plant)) | pest or weed control at 62.5 g/ha ([9]; 62.5 g ai/ha, 100=total damage to plant, 0=no damage to plant, read-out: plant damage rating, Pigweed, Redroot) | pest or weed control at 15.625 g/ha ([11]; 15.625 g ai/ha, read-out: Morning-glory, Ivy-leaved damage rating (100=total damage to plant; 0=no damage to plant)) | plant injury at 15.625 g/ha (corn (Zea mays) [12]; 15.625 g ai/ha, read-out: Corn damage rating (100=total damage to plant; 0=no damage to plant)) | plant injury at 62.5 g/ha (corn (Zea mays) [12]; 62.5 g ai/ha, 100=total damage to plant, 0=no damage to plant, read-out: plant damage rating, Corn)
30%: pest or weed control at 62.5 g/ha ([3]; 62.5 g ai/ha, evaluated after 13 days, read-out: Pigweed, Redroot damage rating (100=total damage to plant; 0=no damage to plant)) | pest or weed control at 15.625 g/ha ([5]; 15.625 g ai/ha, evaluated after 13 days (100=total damage to plant; 0=no damage to plant), read-out: Morningglory, Ivy-leaved damage rating) | pest or weed control at 62.5 g/ha ([5]; 62.5 g ai/ha, evaluated after 13 days, read-out: Morningglory, Ivy-leaved damage rating (100=total damage to plant; 0=no damage to plant))
90%: pest or weed control at 250 g/ha ([9]; 250 g ai/ha, read-out: Pigweed, Redroot damage rating (100=total damage to plant; 0=no damage to plant)) | pest or weed control at 250 g/ha ([10]; 250 g ai/ha, read-out: Foxtail, Giant damage rating (100=total damage to plant; 0=no damage to plant))
